Paper PMC2747801 (European journal of pharmaceutical sciences : official …, 2009)
Where “and” joins values, the source holds several entries; their conditions need not be identical. Equal entries are not always repeated. Where two headings read alike, the source gives them in different places.

Columns and labels:
[1] = male, CF-1, mouse, in vivo, 1 µM, pH 7.4
[2] = for Pgp Mutant Kin / logPS(obs): male, pH 7.4; for logPS(obs) / brain uptake clearance: in vivo
[3] = PAMPA intrinsic permeability, cited from earlier work
[4] = rat, cited from earlier work
[5] = cited from earlier work
P-glycoprotein (Pgp) [6] = assay: Pgp effect: ratio of Pgp-deficient to wild-type uptake clearance; details: for Pgp Effect: ratio of Pgp-deficient Kin to wild-type Kin, CF-1 mice
[7] = rodent and comment not printed ref Fernstermacher 1989; cited from earlier work
[8] = cited from earlier work; remark: listed apart in the source
P-glycoprotein (Pgp) [9] = details: male, CF-1, mouse, not told, pH 7.4
[10] = rat, 5-50uM self-inhibition, training set ref Summerfield et al. 2007

| SMILES | Wild-Type Kin [1] [mL/100g/min] | Pgp Mutant Kin ([2]; CF-1, mouse, 1 µM) [mL/100g/min] | logPS(obs) ([2]; CF-1, mouse, 1 µM) [mL/g/s] | logPo^PAMPA | Pgp Effect (P-glycoprotein (Pgp) [6]) | further results |
| --- | --- | --- | --- | --- | --- | --- |
| CC(C)(C)NC(=O)[C@@H]1CN(Cc2cccnc2)CCN1C[C@@H](O)C[C@@H](Cc1ccccc1)C(=O)N[C@H]1c2ccccc2C[C@H]1O [indinavir] | 0.52 |  |  |  |  |  |
| CC(C)(C)c1ccc(C(O)CCCN2CCC(C(O)(c3ccccc3)c3ccccc3)CC2)cc1 (stereo not drawn) [terfenadine] | 126 | 129 | −1.52 |  |  | logPo^PAMPA ([3]; ref Ruell et al. 2004, Avdeef et al. 2007): 2.63 |
| Cc1cn([C@H]2C[C@H](N=[N+]=[N-])[C@@H](CO)O2)c(=O)[nH]c1=O [zidovudine] |  |  |  | −5.79 |  | logPS(obs) ([4]; i.v. ref Wu et al. 1998): −3.99 mL/g/s |
| CN(C)CCC=C1c2ccccc2CCc2ccccc21 [amitriptyline] | 335 | 408 | −0.66 |  | 1.2 | logPS(obs) [5, 10]: −1.05 mL/g/s; brain uptake clearance ([2]; mouse): > 255 mL/100 g/min; logPo^PAMPA ([3]; ref Avdeef et al. 2006): 1.30 |
| O=C1NC(=O)C(c2ccccc2)(c2ccccc2)N1 [phenytoin] |  |  |  |  |  | logPS(obs) ([5]; rat ref Liu et al. 2004): −2.20 mL/g/s; logPS(obs) [5, 10]: −2.07 mL/g/s; logPS(obs) [7]: −2.30 mL/g/s; logPo^PAMPA ([3]; ref Ruell et al. 2004): −4.32 |
| O=C1CC2(CCCC2)CC(=O)N1CCCCN1CCN(c2ncccn2)CC1 [buspirone] | 325 | 341 |  |  | 1.0 |  |
| CC(C)(C)NC(=O)[C@@H]1C[C@@H]2CCCC[C@@H]2CN1C[C@@H](O)[C@H](Cc1ccccc1)NC(=O)[C@H](CC(N)=O)NC(=O)c1ccc2ccccc2n1 [saquinavir] | 2.9 | 11 | −2.73 | −3.69 |  |  |
| CN/C(=N/CCSCc1nc[nH]c1C)NC#N [cimetidine] |  |  |  |  |  | logPS(obs) ([5]; rat ref Murakami et al. 2000): −4.05 mL/g/s; logPo^PAMPA ([3]; ref Avdeef et al. 2005): −6.20; logPS(obs) ([8]; mouse ref Murakami et al. 2000): −4.10 mL/g/s |
| CN[C@H]1CC[C@@H](c2ccc(Cl)c(Cl)c2)c2ccccc21 [sertraline] |  |  |  | 2.10 | 1.0 |  |
| Cn1c(=O)c2[nH]cnc2n(C)c1=O [theophylline] |  |  |  |  |  | logPS(obs) ([5]; rat ref Liu et al. 2004): −2.90 mL/g/s; logPS(obs) ([5]; rat ref Murakami et al. 2000): −2.81 mL/g/s; logPo^PAMPA ([3]; ref Avdeef et al. 2006): −5.99; logPS(obs) ([8]; mouse ref Murakami et al. 2000): −3.26 mL/g/s |
| CN(C)CCCN1c2ccccc2Sc2ccc(Cl)cc21 [chlorpromazine] | 300 | 295 | −1.08 |  | 1.0 | logPS(obs) [5, 10]: −1.20 mL/g/s; brain uptake clearance ([2]; mouse): > 255 mL/100 g/min; logPo^PAMPA ([3]; ref Avdeef et al. 2004, Ruell et al. 2004): 1.62 |
| COc1ccc(CCN2CCC(Nc3nc4ccccc4n3Cc3ccc(F)cc3)CC2)cc1 [astemizole] | 112 | 123 | −1.55 |  |  | Pgp Effect (P-glycoprotein (Pgp) [9]): 1.1; logPo^PAMPA ([3]; ref Bendels et al. 2006): 1.00 |
| COc1ccc2c3c1O[C@H]1C[C@@H](O)C=C[C@@]31CCN(C)C2 [galanthamine] |  |  |  | −3.15 |  | Pgp Effect (P-glycoprotein (Pgp) [9]): 1.1; logPS(obs) ([2]; mouse): −2.46 mL/g/s; Pgp Mutant Kin ([2]; mouse): 20 mL/100g/min |
| CCCN1C[C@H](C)N([C@H](c2ccc(C(=O)N(CC)CC)cc2)c2cccc(OC)c2)C[C@H]1C [SNC121] |  |  |  | −1.24 |  | Pgp effect ratios (P-glycoprotein (Pgp) [6]; compounds with down-step in rank classification for wild-type PS values (Fig. 3)): 8.6; logPS(obs) ([8]; mouse, in vivo): −1.44 mL/g/s |
| CC[C@]1(O)C[C@H]2CN(CCc3c([nH]c4ccccc34)[C@@](C(=O)OC)(c3cc4c(cc3OC)N(C=O)[C@H]3[C@@](O)(C(=O)OC)[C@H](OC(C)=O)[C@]5(CC)C=CCN6CC[C@]43[C@@H]65)C2)C1 [vincristine] |  |  |  | −2.72 |  | logPS(obs) ([5]; rat ref Greig et al. 1990): −3.91 mL/g/s; logPS(obs) ([5]; rat ref Murakami et al. 2000): −4.10 mL/g/s; logPS(obs) [7]: −4.00 mL/g/s; logPS(obs) ([8]; mouse ref Murakami et al. 2000): −4.12 mL/g/s; logPS(obs) ([8]; mouse, mdr1a(−/−) ref Cisternino et al. 2001): −3.82 mL/g/s; logPS(obs) ([8]; mouse, mrp1(−/−), footnote x ref Cisternino et al. 2003): −4.25 mL/g/s |
| NCC1(CC(=O)O)CCCCC1 [gabapentin] |  |  |  | −3.36 |  | logPS(obs) ([5]; rat, in vivo): −2.56 mL/g/s; Pgp Effect (P-glycoprotein (Pgp) [9]): 1.7; logPS(obs) ([2]; mouse): −2.34 mL/g/s; Pgp Mutant Kin ([2]; mouse): 26 mL/100g/min |
| N[C@@H](Cc1ccc(F)cc1)C(=O)O [p-F-L-phenylalanine] |  |  |  |  | 1.1 |  |
| CCCN(CCC)S(=O)(=O)c1ccc(C(=O)O)cc1 [probenecid] | 0.069 | 0.098 | −4.79 |  | 1.4 | logPo^PAMPA ([3]; ref Ruell et al. 2004): −1.83 |
| CN1CCN(C2=Nc3cc(Cl)ccc3Nc3ccccc32)CC1 [clozapine] | 118 | 90 | −1.73 | −0.39 |  |  |
| NC(=O)N1c2ccccc2C=Cc2ccccc21 [carbamazepine] | 173 | 184 | −1.26 | −3.73 | 1.1 | logPS(obs) [5, 10]: −1.75 mL/g/s |
| N[C@H](Cc1ccc(F)cc1)C(=O)O [p-F-D-phenylalanine] |  |  |  |  | 1.1 |  |
| CN1CC(=O)NC1=N [creatinine] |  |  |  | −7.52 |  | logPS(obs) ([4]; i.v. ref Levin 1980): −4.55 mL/g/s and −4.70 mL/g/s |
| COc1ccc(Cl)cc1C(=O)NCCc1ccc(S(=O)(=O)NC(=O)NC2CCCCC2)cc1 [glibenclamide] |  |  |  |  |  | logPS(obs) ([5]; rat ref Murakami et al. 2000): −2.77 mL/g/s; logPo^PAMPA ([3]; ref Bendels et al. 2006): −2.54; logPS(obs) ([8]; mouse ref Murakami et al. 2000): −3.27 mL/g/s |
